Literature values in patent US20050004010A1, “Cobalamin conjugates useful as imaging agents and as antitumor agents” (Mayo Foundation For Medical Education, priority 1999, published 2005).

Conditions: L isomer versus D isomer

## COc1cccc2c1C(=O)c1c(O)c3c(c(O)c1C2=O)C[C@@](O)(C(C)=O)C[C@@H]3O[C@H]1C[C@H](NC(=O)[C@@H](N)CC(C)C)C(O)[C@H](C)O1 (stereo partly drawn) [N-(L-leucyl) daunorubicin]
  hydrolysis in vivo to regenerate daunorubicin: hydrolyzed in vivo to regenerate daunorubicin
